Reference: patent publication US20080085563A1, “Detection of Gadolinium Chelates” (IDEXX LABORATORIES, INC., priority 2006, published 2008)
Where a SMILES comes first, the peptide text is derived from it.

Legend:
[1] = Effect of masking agent on gadolinium response in the arsenazo III assay; details: optimal amount of HDMP, pH 2.4
From the text: In general, chelating agents, including EDTA, EGTA, TTHA, EDTPO, phenanthroline, and 8-hydroxyquinoline have a greater affinity for rare earth metals, such as gadolinium, than for calcium. HDMP, however, is unusual in its ability to bind calcium preferentially over gadolinium. […] This essentially, although not completely, eliminates the interference by calcium with the method of the invention. […] In one aspect of the invention, the reagent includes HDMP. For example, a reagent of the invention can contain about 10 to about 2000 mM HDMP. In various aspects, the reagent contains about 10 to about 800 mM HDMP, and more particularly about 70 mM HDMP. […] Higher levels of HDMP may be selected to further remove calcium and iron interference based upon analytical sensitivity, matrix effects (e.g., diet, drugs, toxicants, […] icterus), solubility, sample quality (e.g., hemolysis) and storage stability. […] Commercial […]®, Berlex Laboratories, Wayne N.J.) ranging from 50-400 μM was added to 0.07 mL of canine serum. The canine serum was added to the arsenazo III reagent in varying amounts. […] This is obtained by subtracting the absorbance of each solution at 750 nm from its absorbance at 654 nm, reducing interference from wavelength-independent absorbance due to sample turbidity.

[2] = Masking of calcium interference in the gadolinium-arsenazo III assay
From the text: For instance, while calcium interference decreases exponentially with pH, it is not completely eliminated. In addition, the affinity of gadolinium for arsenazo dye decreases with pH, reducing both linearity and sensitivity of gadolinium response. In one aspect, the method of the invention allows for a pH window where the pH is high enough to allow highly efficient measurement of gadolinium chelate while reducing calcium interference by 99% relative to its maximal binding to Arsenazo at pH 6. Nonetheless, even within this optimally selective pH window, interference from both calcium and ferric ions is substantial. To remedy this persistent residual calcium interference, in another aspect of the invention, the compound HDMP, commonly used as an oral iron chelator for treatment of thalassemia (iron overload), is added to the reagent of the invention to effectively mask interference from both calcium and ferric ions without substantially reducing gadolinium assay response. In general, chelating agents, including EDTA, EGTA, TTHA, EDTPO, phenanthroline, and 8-hydroxyquinoline have a greater affinity for rare earth metals, such as gadolinium, than for calcium. […] This is obtained by subtracting the absorbance of each solution at 750 nm from its absorbance at 654 nm, reducing interference from wavelength-independent absorbance due to sample turbidity.

[3] = Masking of ferric ion interference in the gadolinium-arsenazo III assay; details: 70 mM HDMP in reagent
Method: In one aspect of the invention, the reagent includes HDMP. For example, a reagent of the invention can contain about 10 to about 2000 mM HDMP. In various aspects, the reagent contains about 10 to about 800 mM HDMP, and more particularly about 70 mM HDMP. […] Higher levels of HDMP may be selected to further remove calcium and iron interference based upon analytical sensitivity, matrix effects (e.g., diet, drugs, toxicants, […] icterus), solubility, sample quality (e.g., hemolysis) and storage stability. […] The ferric sulfate increased the net absorbance of the solution ([…] nm minus A750 nm). This amount of ferric ion is approximately 10 times the amount that would be contributed by 0.07 mL of a normal canine serum sample.

[4] = weak acid of low-pH buffering system; first value; cited from earlier work

Question: For `Cc1c(O)c(=O)ccn1C` [HDMP, 3-hydroxy-1,2-dimethyl-4(1H)-pyridone], which “reduction in gadolinium signal” value [1] is on record?
Answer: less than 10%

Question: What about the calcium masked ([2]; 70 mM HDMP in reagent) of the same compound?
Answer: 87%

Question: What about the “reduction in calcium interference” value ([2]; optimal amount of HDMP, pH 2.4) of the same compound?
Answer: greater than 90%

Question: What about the ferric ion masked [3] of the same compound?
Answer: greater than 95%

Question: Which “Acid pKa” value [4] does the source give for `NCC(=O)NCC(=O)O` [Diglycine] (H-Gly-Gly-OH) here?
Answer: 3.14

Question: For `O=C1CC(=O)NC(=O)N1` [Barbituric acid], which “Acid pKa” value [4] is on record?
Answer: 4.04
